The values that follow come from patent US20230000089A1, “COMPOSITION ENRICHED IN POLYPHENOLS AND FLAVONOIDS FOR USE AS BIOSTIMULANT AND ANTIMICROBIAL FOR AGRICULTURE APPLICATIONS” (BOTANITEC SPA, priority 2019, published 2023).

What all share (assay): Inhibition halo
Type in all cases: cell-based
Holding throughout (conditions): positive control antibiotic 0.1 g/L

For experiment [1], the system named is Salmonella sp. As to the method: (§1) Routine experiments were performed comparing the inhibition halos, using an antibiotic as a positive control: carbamycin 0.1 g/L for Bacillus sp; chloramphenicol 0.1 g/L for Enterobacter aerogenes; and, ampicillin 0.1 g/L. for Salmonella sp, Staphylococcus aureus and Escherichia coli as shown in Table 7 below.
Experiment [2] has as its system Staphylococcus aureus. As to the method:
as §1

Experiment [3] deals with Escherichia coli. As for the experimental part: FIG. 7. Inhibitory effect of the composition of the invention on Escherichia coli.
as §1

Experiment [4] has as its system Enterobacter aerogenes. As to the method:
as §1

Experiment [5] relates to Bacillus sp. As for the experimental part:
as §1

For `CC1(C)S[C@@H]2[C@H](NC(=O)[C@H](N)c3ccccc3)C(=O)N2[C@H]1C(=O)O` [ampicillin], the Inhibition halo in experiment [1] came to 28 mm; in experiment [2], 25 mm; in experiment [3] it was 52 mm.
`O=C(N[C@H](CO)[C@H](O)c1ccc([N+](=O)[O-])cc1)C(Cl)Cl` [chloramphenicol] came in with an Inhibition halo in experiment [4] of 50 mm.
Consider carbamycin, for which the Inhibition halo in experiment [5] is reported as 31 mm.
